Data published in doi:10.1101/2022.01.13.476167v2 (biorxiv, 2022).

Tested on: aPGA (Achromobacter spp. penicillin G acylase)
Conditions: 0.05 M phosphate buffer, pH 8.0, 35 °C

Compound | Km
CCCCCCCC(=O)N[C@H]1CCOC1=O [C08-HSL] | 870 ± 10 µM
CCCCCC(=O)N[C@H]1CCOC1=O [C06-HSL] | 620 ± 100 µM
